The results in this text go back to EP2881391A1, “Spiroindoline carbocycle derivatives and pharmaceutical compositions thereof” (Bayer Pharma Aktiengesellschaft, priority 2013, dated 2015).

The assay concerns the target T1, human GnRH receptor (Homo sapiens, UniProt P30968).
T1 construct: line established by Prof; Thomas Gudermann; host or cells: CHO cells
T1 sequence (P30968 1-328): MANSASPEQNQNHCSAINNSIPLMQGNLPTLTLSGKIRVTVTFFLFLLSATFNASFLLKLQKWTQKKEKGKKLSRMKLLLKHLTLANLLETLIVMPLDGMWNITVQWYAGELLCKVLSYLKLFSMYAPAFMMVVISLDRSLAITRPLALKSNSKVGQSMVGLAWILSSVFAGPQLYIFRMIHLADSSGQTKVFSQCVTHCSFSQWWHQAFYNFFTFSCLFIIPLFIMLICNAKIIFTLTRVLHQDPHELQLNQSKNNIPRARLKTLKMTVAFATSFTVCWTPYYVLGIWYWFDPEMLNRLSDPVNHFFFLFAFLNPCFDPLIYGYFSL
Briefly: IP-One HTRF assay (inhibition of GnRH-R activation by buserelin). The assay is classed as cell-based. The settings on record: IP-One HTRF assay with buserelin (at EC80) stimulation; CHO cells stably expressing human GnRH receptor; tested 20 µM to 1 nM; read-out: Potency IC50. An outline of the steps:
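CHO cells stably expressing human GnRH-R, pre-incubated 20 min at 22°C with compound (10 concentrations, 20 µM to 1 nM, duplicates), then stimulated 1 h at 37°C with buserelin or LHRH at EC50 or EC80 in pH 7.4 buffer with 50 mM LiCl. IP1 read by HTRF 665/620 nm ratio; IC50 by 4-parameter fit.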
As to `O=C(NCc1ncc(C(F)(F)F)cc1F)c1ccc2c(c1)C1(CCC(O)(C(F)(F)F)CC1)C(C1CC1)N2S(=O)(=O)c1cccc(C(=O)N2CCC2)c1` (stereo not drawn) [Example 63, 1'-{[3-(azetidin-1-ylcarbonyl)phenyl]sulfonyl}-2'-cyclopropyl-N-{[3-fluoro-5-(trifluoromethyl)pyridin-2-yl]methyl}-4-hydroxy-4-(trifluoromethyl)-1',2'-dihydrospiro[cyclohexane-1,3'-indole]-5'-carboxamide], the IC50 came out at 3210 nM. For `COc1cccc(S(=O)(=O)N2c3ccc(C(=O)Nc4cccc(C(=O)O)c4)cc3C3(CCC(O)(C(F)(F)F)CC3)C2C2CC2)c1` (stereo not drawn) [Example 35, 3-[({2'-cyclopropyl-4-hydroxy-1 '-[(3-methoxyphenyl)su Ifonyl]-4-(trifluoromethyl)-1',2'-dihydrospiro[cyclohexane-1,3'-indol]-5'-yl}carbonyl)amino] benzoic acid], the IC50 was 1380 nM. `O=C(Nc1cccc(C(F)(F)F)c1)c1ccc2c(c1)C1(CCC(O)(C(F)(F)F)CC1)C(C1CC1)N2S(=O)(=O)c1ccc(F)cc1` (stereo not drawn) [Example 54, 2'-cyclopropyl-1 [(4-fluorophenyl)sulfonyl]-4-hydroxy-4-(trifluoromethyl)-N-[3-(trifluoromethyl)phenyl]-1',2'-dihydrospiro[cyclohexane-1,3'-indole]-5'-carboxamide]: the IC50 was 2320 nM. For `COC(=O)c1cccc(NC(=O)c2ccc3c(c2)C2(CCC(O)(C(F)(F)F)CC2)C(CC=C(C)C)N3S(=O)(=O)c2ccc(F)cc2)c1` (stereo not drawn) [Example 32, methyl 3-[({1'-[(4-fluorophenyl)sulfonyl]-4-hydroxy-2'-(3-methylbut-2-en-1-yl)-4-(trifluoromethyl)-1',2'-dihydrospiro[cyclohexane-1,3'-indol]-5'-yl}carbonyl)amino] benzoate] the value was 494 nM. For `O=C(NCc1ccccc1Cl)c1ccc2c(c1)C1(CCC(O)(C(F)(F)F)CC1)C(C1CC1)N2S(=O)(=O)c1ccc(F)cc1` (single isomer, unassigned) [Example 62-2] the value was 3280 nM. Consider `CC(C)=CCC1N(S(=O)(=O)c2ccc(F)cc2)c2ccc(C(=O)NCC3CCCCC3)cc2C12CCC(O)(C(F)(F)F)CC2` (stereo not drawn) [Example 21, N-(cyclohexylmethyl) -1'-[(4-fluorophenyl)sulfonyl]-4-hydroxy-2'-(3-methylbut-2-en-1-yl)-4-(trifluoromethyl)-(trifluoromethyl)-1',2'-dihydrospiro[cyclohexane-1,3'-indole]-5'-carboxamide], for which the IC50 is 13200 nM. To `O=C1CCC2(CC1)c1cc(C(=O)NCc3ncc(C(F)(F)F)cc3Cl)ccc1N(S(=O)(=O)c1ccc(F)cc1)C2C1CC1` (stereo not drawn) [Example 8, N-{[3-chloro-5-(trifluoromethyl)pyridin-2-yl]methyl}-2'-cyclopropyl-1'-[(4-fluorophenyl)sulfonyl]-4-oxo-1',2'-dihydrospiro[cyclohexane-1,3'-indole]-5'-carboxamide] belongs 57.4 nM; to `CC(C)=CCC1N(S(=O)(=O)c2ccc(F)cc2)c2ccc(C(=O)Nc3cccc(C(=O)O)c3)cc2C12CCC(O)(C(F)(F)F)CC2` (stereo not drawn) [Example 14, 3-[({1'-[(4-fluorophenyl)sulfonyl]-4-hydroxy-2'-(3-methylbut-2-en-1-yl)-4-(trifluoromethyl)-1',2'-dihydrospiro[cyclohexane-1,3'-indol]-5'-yl}carbonyl)amino] benzoic acid], 639 nM.

Turning to `COC(=O)c1cccc(NC(=O)c2ccc3c(c2)C2(CCC(O)(C(F)(F)F)CC2)C(C2CC2)N3S(=O)(=O)c2cccc(OC)c2)c1` (stereo not drawn) [Example 31, methyl 3-[({2'-cyclopropyl-4-hydroxy-1'-[(3-methoxyphenyl)su Ifonyl]-4-(trifluoromethyl)-1',2'-dihydrospiro[cyclohexane-1,3'-indol]-5'-yl}carbonyl)amino] benzoate], the IC50 is 669 nM.

As for `O=C(NCc1ccccc1Cl)c1ccc2c(c1)C1(CCC(O)(C(F)(F)F)CC1)C(C1CC1)N2S(=O)(=O)c1ccc(F)cc1` (single isomer, unassigned) [Example 62-1], the IC50 amounted to 101 nM. In the case of `COc1cccc(S(=O)(=O)N2c3ccc(C(=O)Nc4cccc(S(C)(=O)=O)c4)cc3C3(CCC(O)(C(F)(F)F)CC3)C2C2CC2)c1` (stereo not drawn) [Example 36, 2'-cyclopropyl-4-hydroxy-1'-[(3-methoxyphenyl)su Ifonyl]-N-[3-(methylsulfonyl)phenyl]-4-(trifluoromethyl)-1',2'-dihydrospiro[cyclohexane-1,3'-indole]-5'-carboxamide], the IC50 was 1270 nM. Regarding `COc1cccc(S(=O)(=O)N2c3ccc(C(=O)NCC4CCCCC4)cc3C3(CCC(O)(C(F)(F)F)CC3)C2C2CC2)c1` (stereo not drawn) [Example 42, N-(cyclohexylmethyl) -2'-cyclopropyl-4-hydroxy-1'-[(3-methoxyphenyl)su Ifonyl]-4-(trifluoromethyl)-1',2'-dihydrospiro[cyclohexane-1,3'-indole]-5'-carboxamide], the half-inhibitory concentration (IC50) turned out to be 1880 nM. To `O=C(NCc1ncccc1C(F)(F)F)c1ccc2c(c1)C1(CCC(O)(C(F)(F)F)CC1)C(C1CC1)N2S(=O)(=O)c1ccc(F)cc1` (single isomer, unassigned) [Example 65-2] belongs 116 nM. To `O=C(Nc1ccon1)c1ccc2c(c1)C1(CCC(O)(C(F)(F)F)CC1)C(C1CC1)N2S(=O)(=O)c1ccc(F)cc1` (single isomer, unassigned) [Example 56-1] belongs 215 nM; to `CC(C)=CCC1N(S(=O)(=O)c2ccc(F)cc2)c2ccc(C(=O)NCc3ncccc3C(F)(F)F)cc2C12CCC(O)(C(F)(F)F)CC2` (stereo not drawn) [Example 23, 1'-[(4-fluorophenyl)sulfonyl]-4-hydroxy-2'-(3-methylbut-2-en-1-yl)-4-(trifluoromethyl)-N-{[3-(trifluoromethyl)pyridin-2-yl]methyl}-1',2'-dihydrospiro[cyclohexane-1,3'-indole]-5'-carboxamide], 713 nM; to `COC(=O)c1cccc(S(=O)(=O)N2c3ccc(C(=O)NCc4ncccc4Cl)cc3C3(CCCCC3)C2C2CC2)c1` (stereo not drawn) [Example 11, methyl 3-{[5'-{[(3-chloropyridin-2-yl)methyl]carbamoyl}-2'-cyclopropylspiro[cyclohexane-1,3'-indol]-1'(2'H)-yl]sulfonyl}benzoate], 1220 nM. For `O=C(NC1(c2ccc(Cl)cc2)CC1)c1ccc2c(c1)C1(CCC(O)(C(F)(F)F)CC1)C(C1CC1)N2S(=O)(=O)c1ccc(F)cc1` (stereo not drawn) [Example 51, N-[1-(4-chlorophenyl)cyclopropyl]-2'-cyclopropyl-1'-[(4-fluorophenyl)sulfonyl]-4-hydroxy-4-(trifluoromethyl)-1',2'-dihydrospiro[cyclohexane-1,3'-indole]-5'-carboxamide] the value was 551 nM; for `O=C(NCc1ccccc1Cl)c1ccc2c(c1)C1(CCC(O)CC1)C(C1CC1)N2S(=O)(=O)c1ccc(F)cc1` (stereo not drawn) [Example 2, N-(2-chlorobenzyl)-2'-cyclopropyl-1'-[(4-fluorophenyl)sulfonyl]-4-hydroxy-1',2'-dihydrospiro[cyclohexane-1,3'-indole]-5'-carboxamide], 60.7 nM; for `O=C(NCc1ncccc1C(F)(F)F)c1ccc2c(c1)C1(CCC(O)(C(F)(F)F)CC1)C(C1CC1)N2S(=O)(=O)c1cccc(C(=O)N2CCC2)c1` (single isomer, unassigned) [Example 66-2], 612 nM. On to `O=C(Nc1cccc(Cl)c1)c1ccc2c(c1)C1(CCC(O)(C(F)(F)F)CC1)C(C1CC1)N2S(=O)(=O)c1ccc(F)cc1` (stereo not drawn) [Example 55, N-(3-chlorophenyl)-2'-cyclopropyl-1'-[(4-fluorophenyl)sulfonyl]-4-hydroxy-4-(trifluoromethyl)-1',2'-dihydrospiro[cyclohexane-1,3'-indole]-5'-carboxamide], for which the IC50 amounted to 705 nM. Take `Cc1cccc(NC(=O)c2ccc3c(c2)C2(CCC(O)(C(F)(F)F)CC2)C(C2CC2)N3S(=O)(=O)c2ccc(F)cc2)c1` (stereo not drawn) [Example 24, 2'-cyclopropyl-1'-[(4-fluorophenyl)sulfonyl]-4-hydroxy-N-(3-methylphenyl)-4-(trifluoromethyl)-1',2'-dihydrospiro[cyclohexane-1,3'-indole]-5'-carboxamide]: the IC50 is 796 nM. For `CC(C)=CCC1N(S(=O)(=O)c2ccc(F)cc2)c2ccc(C(=O)Nc3cc[nH]n3)cc2C12CCC(O)(C(F)(F)F)CC2` (stereo not drawn) [Example 12, 1'-[(4-fluorophenyl)sulfonyl]-4-hydroxy-2'-(3-methylbut-2-en-1-yl)-N-(1H-pyrazol-3-yl)-4-(trifluoromethyl)-1',2'-dihydrospiro[cyclohexane-1,3'-indole]-5'-carboxamide] the value was 1420 nM; for `O=C(NCc1ncccc1Cl)c1ccc2c(c1)C1(CCC(O)(C(F)(F)F)CC1)C(C1CC1)N2S(=O)(=O)c1ccc(F)cc1` (single isomer, unassigned) [Example 1-2], 135 nM; for `COc1cccc(S(=O)(=O)N2c3ccc(C(=O)Nc4ncco4)cc3C3(CCC(O)(C(F)(F)F)CC3)C2C2CC2)c1` (stereo not drawn) [Example 41, 2'-cyclopropyl-4-hydroxy-1'-[(3-methoxyphenyl)su Ifonyl]-N-(1,3-oxazol-2-yl)-4-(trifluoromethyl)-1',2'-dihydrospiro[cyclohexane-1,3'-indole]-5'-carboxamide], 1490 nM.
